# Source: patent publication US20090247579A1, “2-[3H-THIAZOL-2-YLIDINEMETHYL]PYRIDINES AND RELATED COMPOUNDS AND THEIR USE” (CANCER RESEARCH TECHNOLOGY LIMITED, priority 2006, published 2009)
# Key:
# PARP cleavage = assay: Apoptosis as determined by PARP cleavage; format: cell-based
# [1] = tested on: HCT116 human colon tumour cell line grown as xenograft; assay: Xenograft study, HCT116 in nude mice; format: in vivo; conditions: single bolus day 0, MMR201 1 or 2 mg/kg i.v. (tolerated doses), cisplatin 6 mg/kg i.p. (maximum tolerated dose)
# Description: (§1) For xenograft experiments, tumour cells were injected into the flanks of athymic nude mice and allowed to establish until palpable tumour could be detected. Following single bolus injection of drug, tumour growth was monitored using calliper measurement of tumour size and calculation of tumour volume.
# (§2) Cells in exponential phase of growth were harvested with trypsin and re-suspended in phosphate buffered saline. About 10^7 cells in a total volume of 200 μL of PBS were injected subcutaneously in the right flank of CD1 nude mice. They were used for experiments after about 7 to 10 days by which time the mean tumour diameter was about 0.5 cm.
# (§3) Mice were weighed and tumour volumes measured. The mice were randomised in groups of 6 and treated either with the drug or with the solvent alone. The drug was dissolved in DMSO and diluted in sterile PBS just before injection to give a final DMSO concentration of 1%. The drugs solution was prepared such that the injection volume was 5 μL per gram body weight. […]
# (§4) Mice were then weighed daily and tumour volumes estimated from two measurements of the diameter taken at a 90° angle. The volume was determined by the formula: v=D^3/6×π, where v=volume and D is the mean diameter. Results (Mean and SEM) are expressed as the relative tumour volume, which is the tumour volume on any given day divided by the initial tumour volume calculated for each mouse.
# CACO2 = assay: Modified MTT assay, colon panel CACO2; format: cell-based; conditions: Homo sapiens, Caco-2, MMR proficient, p53 mut, read-out: MMR201 IC50
# Description: (§5) Relative drug sensitivities (Resistance Factor) and IC50 values were determined by a modified MTT assay (see, e.g., Mosmann, 1983; Plumb et al., 1989), as described below: • (1) Trypsinise a sub-confluent monolayer culture and collect cells in growth medium containing serum. Centrifuge the suspension (200 g, 5 minutes) to pellet cells, re-suspend in growth medium, and count cells. Dilute cells to a density of 5×10^3 cells/mL allowing 60 mL of cell suspension for 3 microtitre plates. Transfer cell suspension to a 10 cm petri dish, and with a multichannel pipette add 200 μL to each well of the central 10 columns of a flat bottomed 96-well plate (80 wells per plate) starting with column 2 and ending with column 11. Add 200 μL of growth medium to the 8 wells in columns 1 and 12. […] Pipette 6 mL of growth medium in to each of 7 universal containers (30 mL). Prepare 10 mL of the highest concentration of the drug and transfer 1.5 mL of this solution to the first universal container. Mix and then transfer 1.5 mL to the next universal container. Continue until the seventh universal container is reached. The concentrations should be chosen so that the highest concentration kills most of the cells and the lowest kills none of the cells.
# LOVO (MSH2) = assay: Modified MTT assay, colon panel LOVO; format: cell-based; conditions: Homo sapiens, MMR deficient, p53 wt, read-out: MMR201 IC50
# Description: as §5
# p53 = assay: Induction of p53 expression; format: cell-based; conditions: at doses that were shown to induce apoptosis
# [2] = tested on: A2780/cp70 human ovarian, cisplatin resistant, cell line grown as xenograft; assay: Xenograft study, A2780/cp70 in nude mice; format: in vivo; conditions: single bolus day 0, MMR201 1 mg/kg i.v. (tolerated dose), cisplatin 6 mg/kg i.p. (maximum tolerated dose)
# Description: as §1, §2, §3, §4
smiles,measurement,setting,value
CC[n+]1c(/C=C2\Sc3oc4ccccc4c3N2C)ccc2cc(C)ccc21.[I-] [MMR201],Apoptosis in MLH1 negative cells,"PARP cleavage; MLH1 negative cells, PARP cleavage, 24 hours",increased apoptosis at lower drug concentrations
same,Apoptosis as determined by PARP cleavage,PARP cleavage; incubation for 24 hours,induces apoptosis
same,Tumour growth (relative tumour volume) of HCT116 xenograft,[1],inhibits growth
same,IC50,CACO2,474 ± 16 nM
same,IC50,LOVO (MSH2),431 ± 11.2 nM
same,Induction of p53 expression,p53,does not induce expression of p53
same,Tumour growth (relative tumour volume) of A2780/cp70 xenograft,[2],can inhibit growth
